Our source for the TGI values is PubChem BioAssay (NCI).

Some test systems named below: A549 NSCLC; CCRF-CEM leukemia; EKVX NSCLC; HL-60(TB) leukemia; HOP-62 NSCLC; IGROV1 ovarian; LOX IMVI melanoma; MDA-MB-435; NCI-H226 lung; NCI-H460 lung; NCI-H522 lung; NCI/ADR-RES ovarian; OVCAR-5 ovarian; SF-268 CNS; SK-MEL-28 melanoma; SK-OV-3 ovarian; U251 CNS; UACC-62 melanoma; OVCAR-8 ovarian.
Assay in all cases: growth of human tumour cells (NCI), 48 h

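Results reflect a 48-hour exposure of cells in 96-well plates to compound at five concentrations. At the TGI there is no net growth.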

For the compound `CN(C)/N=C1/CCC(C(F)(F)F)(C(F)(F)F)O1`, the TGI is above 100 µM in the assay on A549 NSCLC; 90.3 µM with CCRF-CEM leukemia; above 100 µM in the assay with EKVX NSCLC; 54.8 µM with HL-60(TB) leukemia; 85 µM in the assay on HOP-62 NSCLC; 82.7 µM in the assay on IGROV1 ovarian. Moreover, the TGI is 66.5 µM in the assay on LOX IMVI melanoma; 76 µM in the assay with MDA-MB-435; 84 µM in the assay with NCI-H226 lung; above 100 µM with NCI-H460 lung; 99.3 µM with NCI-H522 lung; 69.6 µM in the assay on NCI/ADR-RES ovarian. For the same compound, the TGI with OVCAR-5 ovarian was above 100 µM; in the assay on SF-268 CNS it was above 100 µM; in the assay with SK-MEL-28 melanoma it was above 100 µM; with SK-OV-3 ovarian, above 100 µM; in the assay with U251 CNS, above 100 µM; with UACC-62 melanoma it was 68.8 µM.

On to `C=CCN1CCC(O)(c2cc(C(=O)OCC)[nH]c2-c2cc(C)no2)C1` (centres undefined), for which the TGI in the assay with A549 NSCLC, in the assay on CCRF-CEM leukemia, with EKVX NSCLC, in the assay on HL-60(TB) leukemia, in the assay on IGROV1 ovarian and in the assay with LOX IMVI melanoma was above 100 µM throughout. The TGI with MDA-MB-435, in the assay with NCI-H226 lung, in the assay on NCI-H460 lung, with NCI-H522 lung, in the assay on NCI/ADR-RES ovarian and in the assay on OVCAR-5 ovarian was above 100 µM in each case. Further, the TGI with OVCAR-8 ovarian, in the assay on SF-268 CNS, in the assay on SK-MEL-28 melanoma, in the assay on SK-OV-3 ovarian, with U251 CNS and in the assay with UACC-62 melanoma was above 100 µM in each case.

Take `CCOC(=O)c1nc2cc(F)c(N3CCOCC3)cc2[nH]c1=O`: the TGI with A549 NSCLC, with CCRF-CEM leukemia, in the assay on EKVX NSCLC, with HL-60(TB) leukemia, in the assay on HOP-62 NSCLC and in the assay on IGROV1 ovarian was above 100 µM each time. Besides, the TGI with MDA-MB-435, in the assay on NCI-H226 lung, in the assay with NCI-H460 lung, in the assay on NCI-H522 lung, with NCI/ADR-RES ovarian and in the assay with OVCAR-5 ovarian was above 100 µM throughout. The TGI with OVCAR-8 ovarian, in the assay on SF-268 CNS, in the assay on SK-MEL-28 melanoma, in the assay on SK-OV-3 ovarian, in the assay on U251 CNS and in the assay with UACC-62 melanoma was above 100 µM throughout.

Turning to `C=C1CC/C=C(\C)CCC[C@H](C)[C@@H](O)[C@@H]2OC(=O)C(=C)[C@@H]2C[C@H]1O`, the TGI with A549 NSCLC is 33.9 µM; with EKVX NSCLC, above 42.6 µM; in the assay on HL-60(TB) leukemia, above 100 µM; in the assay with HOP-62 NSCLC it was 30.8 µM; in the assay with IGROV1 ovarian it was 13.8 µM; with LOX IMVI melanoma, 25.9 µM. In addition, the TGI stood at 17.3 µM in the assay on MDA-MB-435; 11.5 µM in the assay on NCI-H226 lung; 27.1 µM in the assay with NCI-H460 lung; 4.96 µM with NCI-H522 lung; 27.2 µM in the assay on NCI/ADR-RES ovarian; 39.2 µM with OVCAR-5 ovarian. Besides, the TGI in the assay on OVCAR-8 ovarian is 16.7 µM; in the assay with SF-268 CNS, 23.1 µM; with SK-MEL-28 melanoma it was 22.2 µM; in the assay on SK-OV-3 ovarian, above 64.1 µM; with U251 CNS, 50.2 µM; in the assay with UACC-62 melanoma it was 25.9 µM.

Turning to `NCC(=O)Nc1ccc(S(=O)(=O)O)c2cc(S(=O)(=O)O)cc(S(=O)(=O)O)c12`, the TGI in the assay with A549 NSCLC, in the assay on CCRF-CEM leukemia, in the assay with EKVX NSCLC, in the assay with HL-60(TB) leukemia, in the assay on HOP-62 NSCLC and in the assay on IGROV1 ovarian was above 100 µM throughout. In addition, the TGI in the assay with LOX IMVI melanoma, with MDA-MB-435, with NCI-H226 lung, in the assay with NCI-H522 lung, with NCI/ADR-RES ovarian and in the assay on OVCAR-5 ovarian was above 100 µM in each case. Further, the TGI in the assay on OVCAR-8 ovarian, in the assay with SF-268 CNS, with SK-MEL-28 melanoma, in the assay on SK-OV-3 ovarian, with U251 CNS and with UACC-62 melanoma was above 100 µM throughout.

As to `O=c1oc2c/c(=C\c3ccc([N+](=O)[O-])cc3)c(=O)c3cccc1c3-2`, the TGI in the assay on A549 NSCLC, with CCRF-CEM leukemia, in the assay on EKVX NSCLC, in the assay with HL-60(TB) leukemia, in the assay with HOP-62 NSCLC and in the assay on IGROV1 ovarian was above 100 µM throughout. Further, the TGI was above 100 µM in the assay on LOX IMVI melanoma; above 100 µM with MDA-MB-435; above 100 µM with NCI-H460 lung; 90.5 µM in the assay with NCI-H522 lung; above 100 µM in the assay with NCI/ADR-RES ovarian; above 100 µM in the assay on OVCAR-5 ovarian. Also, the TGI in the assay with OVCAR-8 ovarian, in the assay with SF-268 CNS, in the assay on SK-MEL-28 melanoma, with SK-OV-3 ovarian, with U251 CNS and with UACC-62 melanoma was above 100 µM throughout.

As to `COc1ccc(/C=C2\c3cc(OC)c(OC)cc3CCN2C(=O)c2ccccc2)cc1OC`, the TGI in the assay on A549 NSCLC was above 100 µM; in the assay on CCRF-CEM leukemia, 98.4 µM; with EKVX NSCLC, above 100 µM; in the assay on HL-60(TB) leukemia it was 65 µM; with HOP-62 NSCLC, above 100 µM; in the assay with IGROV1 ovarian it was above 100 µM. For the same compound, the TGI in the assay on LOX IMVI melanoma is above 100 µM; with MDA-MB-435 it was 49 µM; in the assay with NCI-H226 lung, above 100 µM; in the assay with NCI-H460 lung it was 87.6 µM; in the assay on NCI-H522 lung, 45.4 µM; in the assay with NCI/ADR-RES ovarian, 76.4 µM. For the same compound, the TGI in the assay on OVCAR-5 ovarian, with OVCAR-8 ovarian, in the assay on SF-268 CNS, with SK-MEL-28 melanoma, in the assay with U251 CNS and in the assay on UACC-62 melanoma was above 100 µM each time.

In the case of `COCOC1C=CCCCC2=CC(C)=C(CC1)O2` (centres undefined), the TGI in the assay with A549 NSCLC, with CCRF-CEM leukemia, in the assay with EKVX NSCLC, in the assay with HOP-62 NSCLC, with IGROV1 ovarian and with LOX IMVI melanoma was above 100 µM in each case. Moreover, the TGI with MDA-MB-435, in the assay with NCI-H226 lung, in the assay with NCI-H460 lung, in the assay with NCI-H522 lung, with NCI/ADR-RES ovarian and with OVCAR-5 ovarian was above 100 µM each time. For the same compound, the TGI in the assay with OVCAR-8 ovarian, in the assay with SF-268 CNS, in the assay on SK-MEL-28 melanoma, in the assay with SK-OV-3 ovarian, in the assay with U251 CNS and in the assay with UACC-62 melanoma was above 100 µM in each case.
